Experimental data published in ChEMBL document CHEMBL1124638, “2,4-Diamino-5-benzylpyrimidines and analogues as antibacterial agents. 10. 2,4-Diamino-5-(6-quinolylmethyl)- and -[(tetrahydro-6-quinolyl)methyl]pyrimidine derivatives. Further specificity studies” (J Med Chem, 1989).
≈ marks a conversion by molar mass, not a printed value.

Key:
Klebsiella aerogenes = assay: Comparative in vitro antibacterial activity with trimethoprim against Enterobacter aerogenes 2200/86; type: functional
Staphylococcus aureus = assay: Comparative in vitro antibacterial activity with trimethoprim against Staphylococcus aureus CN491; type: functional
Citrobacter freundii = assay: Comparative in vitro antibacterial activity with trimethoprim against Citrobacter freundii 2200/77; type: functional
Shigella flexneri = assay: Comparative in vitro antibacterial activity with trimethoprim against Shigella flexneri CN6007; type: functional
Streptococcus agalactiae = assay: Comparative in vitro antibacterial activity with trimethoprim against Streptococcus agalactiae CN1143; type: functional
Dihydrofolate reductase [1] = biological target: T1, Dihydrofolate reductase (Rattus norvegicus, UniProt Q920D2); assay: Inhibitory activity against dihydrofolate reductase in rat liver; conditions: read-out: I50
T1 sequence (Q920D2 whole entry): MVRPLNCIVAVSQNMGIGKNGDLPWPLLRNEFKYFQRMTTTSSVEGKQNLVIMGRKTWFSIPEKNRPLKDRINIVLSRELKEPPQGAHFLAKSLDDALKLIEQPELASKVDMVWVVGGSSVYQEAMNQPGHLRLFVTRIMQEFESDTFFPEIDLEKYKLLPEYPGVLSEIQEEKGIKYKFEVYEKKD

[2] = Comparative in vitro antibacterial activity with trimethoprim against Salmonella typhi CN512; type: functional, salmonella typhosa
Salmonella typhimurium = assay: Comparative in vitro antibacterial activity with trimethoprim against Salmonella Typhimurium S 8587; type: functional, Salmonella enterica subsp. enterica serovar Typhimurium; conditions: Salmonella enterica
Streptococcus pyogenes = assay: Comparative in vitro antibacterial activity of compound with trimethoprim against Streptococcus pyogenes CN10; type: functional
Enterococcus faecalis = assay: Comparative in vitro antibacterial activity with trimethoprim against Streptococcus faecalis CN478; type: functional
Pasteurella multocida = assay: Comparative in vitro antibacterial activity with trimethoprim against Pasteurella multocida ATCC 6587; type: functional
[3] = system: Bordetella bronchiseptica; assay: Comparative in vitro antibacterial activity with trimethoprim against Bordetella bronchiseptica CN385; type: functional
[4] = system: Mycolicibacterium smegmatis; assay: Comparative in vitro antibacterial activity with trimethoprim against Mycobacterium smegmatis S 3254; type: functional
Proteus mirabilis = assay: Comparative in vitro antibacterial activity with trimethoprim against Proteus mirabilis S2409; type: functional
Klebsiella pneumoniae = assay: Comparative in vitro antibacterial activity with trimethoprim against Klebsiella pneumoniae CN3632; type: functional
Proteus vulgaris = assay: Comparative in vitro antibacterial activity with trimethoprim against Proteus vulgaris CN329; type: functional
Escherichia coli = assay: Comparative in vitro antibacterial activity with trimethoprim against Escherichia coli CN314; type: functional
Vibrio cholerae = assay: Comparative in vitro antibacterial activity with trimethoprim against Vibrio cholerae ATCC 14035; type: functional
Dihydrofolate reductase [5] = biological target: Dihydrofolate reductase (Neisseria gonorrhoeae, UniProt P04174); assay: Inhibitory activity against Dihydrofolate reductase in Neisseria gonorrhoeae; conditions: read-out: I50
Serratia marcescens = assay: Comparative in vitro antibacterial activity with trimethoprim against Serratia marcescens CN2398; type: functional

Sequence of Dihydrofolate reductase (Neisseria gonorrhoeae, UniProt P04174) (P04174 whole entry): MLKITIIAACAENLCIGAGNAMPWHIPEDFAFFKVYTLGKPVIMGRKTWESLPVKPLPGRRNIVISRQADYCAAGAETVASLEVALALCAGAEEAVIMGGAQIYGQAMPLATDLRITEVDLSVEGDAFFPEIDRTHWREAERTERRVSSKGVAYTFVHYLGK

SMILES | MIC (Klebsiella aerogenes) | MIC (Staphylococcus aureus) | MIC (Citrobacter freundii) | MIC (Shigella flexneri) | MIC (Streptococcus agalactiae) | IC50 (Dihydrofolate reductase [1]) | MIC [2] | MIC (Salmonella typhimurium) | MIC (Streptococcus pyogenes) | MIC (Enterococcus faecalis) | MIC (Pasteurella multocida) | MIC [3] | MIC [4] | MIC (Proteus mirabilis) | MIC (Klebsiella pneumoniae) | MIC (Proteus vulgaris) | MIC (Escherichia coli) | MIC (Vibrio cholerae) | IC50 (Dihydrofolate reductase [5]) | MIC (Serratia marcescens)
CCN1CC(CO)Cc2cc(Cc3cnc(N)nc3N)cc(OC)c21 (stereo not given) | 10 µg/mL (≈ 29.1 µM) | 10 µg/mL (≈ 29.1 µM) | 100 µg/mL (≈ 291 µM) | 100 µg/mL (≈ 291 µM) | 30 µg/mL (≈ 87.4 µM) | 440 µM | 100 µg/mL (≈ 291 µM) | 30 µg/mL (≈ 87.4 µM) | 10 µg/mL (≈ 29.1 µM) | 3 µg/mL (≈ 8.74 µM) | 100 µg/mL (≈ 291 µM) | 30 µg/mL (≈ 87.4 µM) | 100 µg/mL (≈ 291 µM) | > 30 µg/mL | 30 µg/mL (≈ 87.4 µM) | > 100 µg/mL | 100 µg/mL (≈ 291 µM) | 100 µg/mL (≈ 291 µM) | 2.6 µM | > 10 µg/mL
CCc1cc(Cc2cnc(N)nc2N)cc2c1N(C)CCC2C (stereo not given) | 1 µg/mL (≈ 3.21 µM) | 0.03 µg/mL (≈ 0.0963 µM) | 3 µg/mL (≈ 9.63 µM) | 10 µg/mL (≈ 32.1 µM) | 1 µg/mL (≈ 3.21 µM) | 44 µM | 10 µg/mL (≈ 32.1 µM) | 1 µg/mL (≈ 3.21 µM) | 1 µg/mL (≈ 3.21 µM) | 0.03 µg/mL (≈ 0.0963 µM) | 3 µg/mL (≈ 9.63 µM) | 1 µg/mL (≈ 3.21 µM) | 3 µg/mL (≈ 9.63 µM) | 3 µg/mL (≈ 9.63 µM) | 3 µg/mL (≈ 9.63 µM) | 10 µg/mL (≈ 32.1 µM) | 3 µg/mL (≈ 9.63 µM) | 3 µg/mL (≈ 9.63 µM) | 0.3 µM | 3 µg/mL (≈ 9.63 µM)
COc1cc(Cc2cnc(N)nc2N)cc2c1NCCC2 | 3 µg/mL (≈ 10.5 µM) | 3 µg/mL (≈ 10.5 µM) | 10 µg/mL (≈ 35 µM) | 10 µg/mL (≈ 35 µM) | 3 µg/mL (≈ 10.5 µM) | 76 µM | 3 µg/mL (≈ 10.5 µM) | 3 µg/mL (≈ 10.5 µM) | 3 µg/mL (≈ 10.5 µM) | 3 µg/mL (≈ 10.5 µM) | 3 µg/mL (≈ 10.5 µM) | 1 µg/mL (≈ 3.5 µM) | 1 µg/mL (≈ 3.5 µM) | 3 µg/mL (≈ 10.5 µM) | 3 µg/mL (≈ 10.5 µM) | 3 µg/mL (≈ 10.5 µM) | 10 µg/mL (≈ 35 µM) | 1 µg/mL (≈ 3.5 µM) | 0.51 µM | 3 µg/mL (≈ 10.5 µM)
CC1CC(C)c2cc(Cc3cnc(N)nc3N)cc(Cl)c2N1 (stereo not given) | 100 µg/mL (≈ 315 µM) | 3 µg/mL (≈ 9.44 µM) | 100 µg/mL (≈ 315 µM) | 300 µg/mL (≈ 944 µM) | 3 µg/mL (≈ 9.44 µM) | 41 µM | 100 µg/mL (≈ 315 µM) | 100 µg/mL (≈ 315 µM) | 3 µg/mL (≈ 9.44 µM) | 3 µg/mL (≈ 9.44 µM) | 30 µg/mL (≈ 94.4 µM) | 100 µg/mL (≈ 315 µM) | 10 µg/mL (≈ 31.5 µM) | 30 µg/mL (≈ 94.4 µM) | 100 µg/mL (≈ 315 µM) | 100 µg/mL (≈ 315 µM) | 100 µg/mL (≈ 315 µM) | 3 µg/mL (≈ 9.44 µM) | 0.24 µM | > 10 µg/mL
COc1cc(Cc2cnc(N)nc2N)cc2c1NCC(CO)C2 (stereo not given) | 30 µg/mL (≈ 95.1 µM) | 3 µg/mL (≈ 9.51 µM) | 30 µg/mL (≈ 95.1 µM) | 30 µg/mL (≈ 95.1 µM) | 10 µg/mL (≈ 31.7 µM) | 64 µM | 10 µg/mL (≈ 31.7 µM) | 10 µg/mL (≈ 31.7 µM) | 10 µg/mL (≈ 31.7 µM) | 3 µg/mL (≈ 9.51 µM) | 30 µg/mL (≈ 95.1 µM) | 30 µg/mL (≈ 95.1 µM) | 10 µg/mL (≈ 31.7 µM) | > 30 µg/mL | 10 µg/mL (≈ 31.7 µM) | 100 µg/mL (≈ 317 µM) | 10 µg/mL (≈ 31.7 µM) | 3 µg/mL (≈ 9.51 µM) | 0.41 µM | > 10 µg/mL
